Experimental findings from US20260176267A1, “PREPARATION OF IMIDAZOPYRIDINE AND IMIDAZOPYRIDAZINE DERIVATIVES AS NOVEL DIACYLGLYCERIDE O-ACYLTRANSFERASE 2 INHIBITORS” (Merck Sharp & Dohme LLC, priority 2022, published 2026) are described below.

The structures appear in SMILES notation.

In the assay the target is T1, human DGAT2 (hDGAT2) (Homo sapiens, UniProt Q96PD7).
T1 construct: made in house; host or cells: Sf-9 insect cells (baculovirus), membrane fraction
T1 sequence (Q96PD7 1-388): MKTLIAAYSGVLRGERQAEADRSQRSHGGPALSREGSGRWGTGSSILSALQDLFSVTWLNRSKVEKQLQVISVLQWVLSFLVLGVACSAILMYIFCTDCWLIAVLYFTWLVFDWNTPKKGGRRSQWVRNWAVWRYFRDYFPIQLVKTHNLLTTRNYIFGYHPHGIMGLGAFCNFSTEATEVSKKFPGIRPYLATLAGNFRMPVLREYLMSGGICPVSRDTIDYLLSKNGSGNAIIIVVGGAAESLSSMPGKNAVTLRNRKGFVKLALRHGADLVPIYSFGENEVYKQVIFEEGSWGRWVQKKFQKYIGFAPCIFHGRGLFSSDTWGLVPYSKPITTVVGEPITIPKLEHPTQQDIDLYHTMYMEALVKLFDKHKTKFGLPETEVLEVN
The assay can be described thus: DGAT2 Enzymatic Activity Assay. It counts as biochemical. The note with it: membrane prep of Sf-9 cells expressing hDGAT2; 13C18-triolein product by LC/MS/MS; 25 μM diolein, 5 μM 13C oleoyl-CoA, rt. The protocol: Sf-9 insect cells were maintained in Grace's insect cell culture medium with 10% heated-inactivated fetal bovine serum, 1% Pluronic F-68 and 0.14 μg/ml Kanamycine sulfate at 27° C. in a shaker incubator. After infection with untagged baculovirus expressing human DGAT2 (hDGAT2) at multiplicity of infection (MOI) 3 for 48 hours, cells were harvested. Cell pellets were suspended in buffer containing 10 mM Tris-HCl pH 7.5, 1 mM EDTA, 250 mM sucrose and Complete Protease Inhibitor Cocktail (Sigma Aldrich), and sonicated on ice. Cell debris were removed by centrifugation at 2000×g for 15 minutes. Membrane fractions were isolated by ultracentrifugation (100,000×g), resuspended in the same buffer, and frozen (−80° C.) for later use. The protein concentration was determined with the Pierce™ BCA Protein Assay Kit (Thermo Fisher Scientific).
LC/MS/MS analyses were performed using Thermal Fisher's LX4-TSQ Vantage system. This system consists of an Agilent binary high-performance liquid chromatography (HPLC) pump and a TSQ Vantage triple quadrupole MS/MS instrument. For each sample, 2 μL samples from the top organic layer of in-plate liquid-liquid extraction were injected onto a Thermo Betabasic C4 column (2.1 mm×20 mm, 5 μm particle size). The samples were then eluted using the following conditions; mobile phase: Isopropanol:acetonitrile/10 mM ammonium formate=50/35/15 (v/v/v), flow rate: 0.8 mL/min, temperature: 25° C. Data was acquired in positive mode using a heated electrospray ionization (HESI) interface. The operational parameters for the TSQ Vantage MS/MS instrument were a spray voltage of 3000 V, capillary temperature of 280° C., vaporizer temperature 400° C., sheath gas 45 arbitrary unit. Aux gas 10 arbitrary units. […] The peak area was integrated by Xcalibur Quan software. The ratio between the ^13C18 triolein generated in the reaction and spiked in internal standard ^13C21-triolein was used to generate percentage inhibition and IC50 values. Compound percentage inhibition was calculated by the following formula: Inhibition %=1−[(compound response−low control)/(high control−low control)]×100%.
DGAT2 activity was determined by measuring the amount of enzymatic product ^13C18-triolein (^13C-1,2,3-Tri(cis-9-octadecenoyl)glycerol) using the membrane prep mentioned above. The assay was carried out in ABgene 384-well assay plates in a final volume of 25 μL at rt.

As a reminder, the IC50 is the concentration needed to halve the response being measured. Low readings indicate greater potency in that assay, high ones weaker potency in that assay. Consider `CC1(NC(=O)c2cn3cc(Oc4ncc(Cl)cc4OCC(F)(F)F)ccc3n2)CS(=O)(=O)C1` [Example 1, 6-[[5-Chloro-3-(2,2,2-trifluoroethoxy)-2-pyridyl]oxy]-N-(3-methyl-1,1-dioxo-thietan-3-yl)imidazo[1,2-a]pyridine-2-carboxamide], for which the concentration for half-maximal inhibition (IC50) was found to be 5 nM. To `CCOc1cccnc1Oc1ccc2nc(C(=O)NC3(C)CCC(F)(F)CC3)cn2c1` [Example 3, N-(4,4-difluoro-1-methyl-cyclohexyl)-6-[(3-ethoxy-2-pyridyl)oxy]imidazo[1,2-a]pyridine-2-carboxamide] belongs 5.8 nM.

`O=C(NC1(CC(F)(F)F)CCS(=O)(=O)CC1)c1cn2cc(Oc3ncc(Cl)cc3OCC(F)(F)F)ccc2n1` [Example 5, 6-[[5-chloro-3-(2,2,2-trifluoroethoxy)-2-pyridyl]oxy]-N-[1,1-dioxo-4-(2,2,2-trifluoroethyl)thian-4-yl]imidazo[1,2-a]pyridine-2-carboxamide] yielded a concentration for half-maximal inhibition (IC50) of 36 nM. To `CC1(NC(=O)c2cn3cc(Oc4ncccc4OCC(F)(F)F)cc(F)c3n2)CCS(=O)(=O)CC1` [Example 7, 8-fluoro-N-(4-methyl-1,1-dioxo-thian-4-yl)-6-[[3-(2,2,2-trifluoroethoxy)-2-pyridyl]oxy]imidazo[1,2-a]pyridine-2-carboxamide] belongs 4.7 nM; to `CCOc1cc(Cl)cnc1Oc1ccc2nc(C(=O)NC3(C)CCS(=O)(=O)CC3)cn2c1C` [Example 8, 6-[(5-chloro-3-ethoxy-2-pyridyl)oxy]-5-methyl-N-(4-methyl-1,1-dioxo-thian-4-yl)imidazo[1,2-a]pyridine-2-carboxamide], 1.4 nM; to `Cc1cc2nc(C(=O)NC3(C)CCS(=O)(=O)CC3)cn2cc1Oc1ncc(Cl)cc1OCC1(F)CC1` [Example 10, 6-[[5-chloro-3-[(1-fluorocyclopropyl)methoxy]-2-pyridyl]oxy]-7-methyl-N-(4-methyl-1,1-dioxo-thian-4-yl)imidazo[1,2-a]pyridine-2-carboxamide], 13 nM.

Compound `CC1(NC(=O)c2cn3cc(Oc4ncc(Cl)cc4OCC(F)F)ccc3n2)CS(=O)(=O)C1` [Example 11, 6-[[5-chloro-3-(2,2-difluoroethoxy)-2-pyridyl]oxy]-N-(3-methyl-1,1-dioxo-thietan-3-yl)imidazo[1,2-a]pyridine-2-carboxamide] registered an IC50 of 23 nM.

Regarding `Cc1cc2nc(C(=O)NC3(CC(F)(F)F)CCS(=O)(=O)CC3)cn2cc1Oc1ncc(Cl)cc1OCC(F)(F)F` [Example 12, 6-[[5-chloro-3-(2,2,2-trifluoroethoxy)-2-pyridyl]oxy]-N-[1,1-dioxo-4-(2,2,2-trifluoroethyl)thian-4-yl]-7-methyl-imidazo[1,2-a]pyridine-2-carboxamide], it took 5.6 nM to reach half-maximal inhibition (IC50). As for `CC1(NC(=O)c2cn3cc(Oc4ncc(Cl)cc4OCC(F)(F)F)c(Cl)cc3n2)CCS(=O)(=O)CC1` [Example 13, 7-chloro-6-[5-chloro-3-(2,2,2-trifluoroethoxy)pyridine-2-yl]oxy-N-(4-methyl-1,1-dioxo-thian-4-yl)imidazo[1,2-a]pyridine-2-carboxamide], the IC50 was 4.3 nM. The value for `CC1(NC(=O)c2cn3cc(Oc4ncccc4OCC(F)(F)F)ccc3n2)CCS(=O)(=O)CC1` [Example 14, N-(4-methyl-1,1-dioxo-thian-4-yl)-6-[[3-(2,2,2-trifluoroethoxy)-2-pyridyl]oxy]imidazo[1,2-a]pyridine-2-carboxamide] was 5.3 nM; that for `Cc1c(Oc2ncc(Cl)cc2OCC(F)(F)F)cc(F)c2nc(C(=O)NC3(C)CCS(=O)(=O)CC3)cn12` [Example 15, 6-[[5-chloro-3-(2,2,2-trifluoroethoxy)-2-pyridyl]oxy]-8-fluoro-5-methyl-N-(4-methyl-1,1-dioxo-thian-4-yl)imidazo[1,2-a]pyridine-2-carboxamide] was 11 nM; that for `O=C(N[C@H]1CCCC(F)(F)[C@@H]1O)c1cn2cc(Oc3ncc(F)cc3OCC(F)(F)F)ccc2n1` [Example 16, N-[(1S,2R)-3,3-difluoro-2-hydroxy-cyclohexyl]-6-[[5-fluoro-3-(2,2,2-trifluoroethoxy)-2-pyridyl]oxy]imidazo[1,2-a]pyridine-2-carboxamide] was 4.5 nM. The value for `Cc1c(Oc2ncc(Cl)cc2OCC(F)(F)F)ccc2nc(C(=O)NC3(C)CCS(=O)(=O)CC3)cn12` [Example 17] was 1.4 nM; that for `CC(F)(F)COc1cc(Cl)cnc1Oc1ccc2nc(C(=O)NC3(C)CCS(=O)(=O)CC3)cn2c1` [Example 18, 6-[[5-chloro-3-(2,2-difluoropropoxy)-2-pyridyl]oxy]-N-(4-methyl-1,1-dioxo-thian-4-yl)imidazo[1,2-a]pyridine-2-carboxamide] was 2 nM. To `Cc1cc2nc(C(=O)NC3(C)CCS(=O)(=O)CC3)cn2cc1Oc1ncc(F)cc1OCC(C)(F)F` [Example 19, 6-[[3-(2,2-difluoropropoxy)-5-fluoro-2-pyridyl]oxy]-7-methyl-N-(4-methyl-1,1-dioxo-thian-4-yl)imidazo[1,2-a]pyridine-2-carboxamide] belongs 7.7 nM; to `Cc1cc2nc(C(=O)NC3(C)CCS(=O)(=O)CC3)cn2cc1Oc1nccnc1OCC(F)(F)F` [Example 20, 7-methyl-N-(4-methyl-1,1-dioxidotetrahydro-2H-thiopyran-4-yl)-6-((3-(2,2,2-trifluoroethoxy)pyrazin-2-yl)oxy)imidazo[1,2-a]pyridine-2-carboxamide], 17.3 nM; to `CC1(NC(=O)c2cn3cc(Oc4ncc(F)cc4OCC(F)(F)F)c(F)cc3n2)CCS(=O)(=O)CC1` [Example 21, 7-fluoro-6-[[5-fluoro-3-(2,2,2-trifluoroethoxy)-2-pyridyl]oxy]-N-(4-methyl-1,1-dioxo-thian-4-yl)imidazo[1,2-a]pyridine-2-carboxamide], 1.8 nM. Turning to `CCOc1cccnc1Oc1ccc2nc(C(=O)N[C@H]3CCCC[C@@H]3O)cn2c1` [Example 22, 6-[(3-ethoxy-2-pyridyl)oxy]-N-[(1S,2S)-2-hydroxycyclohexyl]imidazo [1,2-a]pyridine-2-carboxamide], half-maximal inhibition (IC50) was put at 3.5 nM. The value for `CCOc1cccnc1Oc1ccc2nc(C(=O)NC3(C)CC(F)(F)C3)cn2c1` [Example 23, N-(3,3-difluoro-1-methyl-cyclobutyl)-6-[(3-ethoxy-2-pyridyl)oxy]imidazo[1,2-a]pyridine-2-carboxamide] was 31 nM. The value for `Cc1cc(Oc2ncccc2OCC(F)(F)F)cn2cc(C(=O)NC3(C)CCS(=O)(=O)CC3)nc12` [Example 24, 8-methyl-N-(4-methyl-1,1-dioxo-thian-4-yl)-6-[[3-(2,2,2-trifluoroethoxy)-2-pyridyl]oxy]imidazo[1,2-a]pyridine-2-carboxamide] was 117 nM.

`Cc1cc2nc(C(=O)NC3(C)CC(F)(F)C3)cn2cc1Oc1ncc(F)cc1OCC(F)F` [Example 25, 6-[[3-(2,2-difluoroethoxy)-5-fluoro-2-pyridyl]oxy]-N-(3,3-difluoro-1-methyl-cyclobutyl)-7-methyl-imidazo[1,2-a]pyridine-2-carboxamide]: the IC50 worked out at 3.8 nM. Consider `CCOc1cccnc1Oc1ccc2nc(C(=O)N[C@H]3CC[C@](OC)(C(F)(F)F)CC3)cn2c1` [Example 26, 6-[(3-ethoxy-2-pyridyl)oxy]-N-[4-methoxy-4-(trifluoromethyl)cyclohexyl] imidazo[1,2-a]pyridine-2-carboxamide], for which the 50% inhibitory concentration (IC50) is 10 nM. To `Cc1c(Oc2ncc(F)cc2OCC(F)F)ccc2nc(C(=O)NC3(C)CC(F)(F)C3)cn12` [Example 28, 6-[[3-(2,2-difluoroethoxy)-5-fluoro-2-pyridyl]oxy]-N-(3,3-difluoro-1-methyl-cyclobutyl)-5-methyl-imidazo[1,2-a]pyridine-2-carboxamide] belongs 59 nM; to `Cc1cc2nc(C(=O)NC3(C)CCS(=O)(=O)CC3)cn2cc1Oc1ncc(F)cc1OCC(F)(F)F` [Example 29, 6-[[5-fluoro-3-(2,2,2-trifluoroethoxy)-2-pyridyl]oxy]-7-methyl-N-(4-methyl-1,1-dioxo-thian-4-yl)imidazo[1,2-a]pyridine-2-carboxamide], 13 nM.
